{"source": "paper PMC12455390", "about": "“Three Is Better than One: A Multimetal Complex that Triggers Immunogenic Cell Death” (Angewandte Chemie (International Ed. in English), 2025)", "key": {"[1]": {"tested_on": "CT26 colorectal cancer model", "details": "CT26 tumors in BALB/c mice, i.p. on days 8, 10, 12 & 14, day 16, doxorubicin 2 mg/kg, mixture 5.7 + 4 + 12 mg/kg, complex 5 21 mg/kg", "method": "The experimental protocol consisted of inoculating mice with 1.5 x 10^6 CT26 cells on day 0. When the tumors became palpable, a series of four intraperitoneal (i.p.) injections were carried out on days 8, 10, 12, & 14. On day 16 mice (n = 5) were euthanized and organs including tumors (Figure S37) were collected and analyzed for their metal content via ICP‐MS (Figure 6a). The doxorubicin dosage was based on a previous report.^[ [32] ^]\nProcedures were conducted in accordance with the Guide for the Care and Use of Laboratory Animals (U.S. Public Health Service, National Institute of Health) and the protocol for this experiment was approved by the Institutional Animal Care and Use Committee (IACUC, protocol numbers AUP-2022-00101 & AUP-2024-00337) at The University of Texas at Austin. Briefly, 6-8 weeks female BALB/c mice were acclimatized for 7 days thereafter, murine colon carcinoma cells, CT26 (1.5 x 10^6 cells in 100 μL of sterile PBS) were subcutaneously injected to the right flank. The experiments were initiated once tumors became palpable on Day 8. […] The animals were monitored for the development of pain or distress symptoms with the body weight and tumor size also being closely monitored. […] On day 16, mice were euthanized, and tumor and organs (liver, kidney, spleen, heart and lungs) were collected for ICP-MS metal quantification."}, "[2]": {"tested_on": "CT26 challenge model", "assay": "In vivo CT26 vaccination/challenge model", "design": "species or system BALB/c mice", "details": "mice vaccinated with CT26 cells pretreated 24 h at IC50, challenged after 7 days", "method": "Induction of an immunogenic response in vivo was determined using the established preclinical CT26 challenge model depicted in Figure 8a.^[ [33] ^] […] After 7 days, the mice were challenged with 5 x 10^5 naive CT26 cells injected into the left flank (challenge flank). Mice were monitored thereafter to assess the level, if any, of tumor development on the challenge (left) side. Monitoring was continued for 28 days. […] These are animals in which ICD induction was not expected. Tumor free survival was seen up to day 14 and up to day 21 in the doxorubicin and 1 + Oxa + 2 groups, respectively.\nAfter 7 days, mice were inoculated s.c. with 5 x 10^5 naive CT26 cancer cells into the contralateral flank. Prior to all injections, the supernatant of one flask per harvest day was tested for mycoplasma contamination (MycoAlert™, Lonza, Rockland, ME), which yielded negative results on all days. Body weights and tumor measurements were checked daily, and tumor development was compared among groups."}, "[3]": {"tested_on": "white blood cells", "assay": "Total and differential WBC manual count in challenge study", "type": "in vivo, BALB/c mice", "details": "mice injected with pretreated CT26 cells", "description": "To test this proposition, whole blood samples were collected from mice before vaccination (day ‐7), before challenge (day 0), and 7 days after challenge (day 7) as outlined in Figure 8a. The samples were subjected to a manual count of total white blood cell (WBC) using Tuerk staining and differential leukocytes (monocytes, lymphocytes, neutrophils, eosinophils, and basophils) using Wright staining (see Supporting Information). The results are summarized in Figure 8c as total WBC per µL (Figure 8c), differential percentages of monocytes (Figure 8d), and lymphocytes (Figure 8e) corresponding to an innate and adaptive immune response, respectively. The neutrophil, eosinophil, and basophil levels remained unchanged. […]\nBlood samples were collected from all mice groups by tail vein and were analyzed for total WBC count and differential count.^9 Blood was draw on Day -7 (before vaccination), Day 0 (before rechallenge) and Day 7. Total WBC was analyzed by adding 2 µL of blood to 38 µL Tuerk solution (Sigma-Aldrich product - 93770) and was counted using a hemocytometer after 45 min under a 10x light microscope. […] 200 WBC cells were counted and classified under 1000x magnification using a Leica DMI6000b microscope."}}, "note": "Read-outs that look alike come from different tables or passages of the source.", "data": [{"smiles": "COc1cccc2c1C(=O)c1c(O)c3c(c(O)c1C2=O)C[C@@](O)(C(=O)CO)C[C@@H]3O[C@H]1C[C@H](N)[C@H](O)[C@H](C)O1", "note": "[Doxorubicin, doxorubicin, reference compound]", "values": [{"measurement": "Inhibition of Tumor Growth", "setting": "[1]", "result": 40.8, "unit": "%"}, {"measurement": "Inhibition of Tumor Growth", "setting": "[1]; listed as doxorubicin", "result": "~40", "unit": "%"}, {"measurement": "tumor free survival up to day", "setting": "[2]", "result": "≤ 14", "unit": "days"}, {"measurement": "total WBC count", "setting": "[3]; day 0, trends retained through day 7", "result": "significant reduction in total WBC count"}, {"measurement": "differential monocyte and lymphocyte percentages", "setting": "[3]; days 0 and 7", "result": "transient increase in lymphocyte percentages"}]}]}
